What was measured:
[1] = target: T1, hyperactive mutant BKCa channels (hSlo G803D/N806K) stably expressed in AD 293 cells (Homo sapiens, UniProt Q12791, G856D/N859K); test: Cell-based fluorescence assay (FluxOR Potassium Ion Channel Assay) of BKCa channel activation
T1 construct: expressed in transfected cells
Experimental: AD 293 cells, which are derivatives of the commonly used HEK 293 cell line and stably express hyperactive mutant BKCa channels (hSlo G803D/N806K) to sensitively detect the effect (Lee et al., 2013), were cultured in Dulbecco' modified Eagle medium (Hyclone, Logan, Utah, […]) supplemented with 10% fetal bovine serum, and selected with 1 mg/mL Geneticin (Gibco, Amarillo, TX, USA). 20,000 cells per well were seeded on a 96-well clear-bottom black plate (Corning, New York, NY, USA) coated with poly-D-lysine (Gibco). BKCa channel activity was measured using the cell-based fluorescence assay, FluxOR Potassium Ion Channel Assay (Thermo Fisher Scientific, Waltham, MA, USA). Experimental procedures were performed according to the manufacturer's instructions. The cells were treated with test compounds dissolved in assay buffer for 15 minutes. Fluorescence was measured using a FlexStation3 multimode microplate reader (Molecular Devices, Silicon Valley, CA, USA) and SoftMax Pro (Molecular Devices). Excitation and emission wavelengths were set to 485 nm and 528 nm, respectively. Fluorescence signals were acquired every 2 seconds for 120 seconds and normalized by the relative fluorescence unit (RFU). The efficacy of a channel activator was determined by analyzing changes (ΔRFU) in the RFU for 80 seconds after channel stimulation.
Activation effects of the synthesized compounds on BKCa channels were evaluated using cell-based fluorescence assay. NS11021 was used as the positive control. The effects were determined based on the initial rate (vi) of channel activation and the apparent EC50 value obtained from fitting data of the dose-response curve. Here, Vi means change values for 4 seconds at the start of channel opening (vi={RFU(t=24 s)−RFU(t=20 s)}/4 s). […]

[2] = test system: Spontaneously hypertensive rats (SHR); test: In vivo model of OAB: urination in spontaneously hypertensive rats after oral administration; design: species or system rat
Experimental: Male rats with body weights of 300 to 350 g were deprived of food and water overnight before the experiment, and then were randomly divided into a drug administration group and a control group. All animals were provided free access to water for 2 hours, and then 10 mL/kg of vehicle solution [DMSO:PEG400:distilled water=5:40:55 (v/v)] as a test substance were orally administered. After oral administration of the test substance, the rats were placed in a metabolic cage and the number of urinations and urine volume were measured for 3 hours.
The in vivo treatment effects of the compounds for […] were investigated in spontaneously hypertensive rats (SHR) with OAB symptoms after oral administration. Wistar-Kyoto rats (WKY) were used as the healthy animal control, and urination frequency was increased more than 2.8 times in SHR compared to WKY. Compound 208 reduced the urination frequency in SHR (50 mg/kg) by 33%, which is quite close to the urination frequency of the normal group (see FIG. 18).

[3] = target: T1, hyperactive mutant BKCa channels (hSlo G803D/N806K) stably expressed in AD 293 cells; test: Cell-based fluorescence assay (FluxOR Potassium Ion Channel Assay) of BKCa channel activation; settings: compounds at 5 μM; n=3; vehicle 0.26

T1 sequence (Q12791 whole entry G856D/N859K): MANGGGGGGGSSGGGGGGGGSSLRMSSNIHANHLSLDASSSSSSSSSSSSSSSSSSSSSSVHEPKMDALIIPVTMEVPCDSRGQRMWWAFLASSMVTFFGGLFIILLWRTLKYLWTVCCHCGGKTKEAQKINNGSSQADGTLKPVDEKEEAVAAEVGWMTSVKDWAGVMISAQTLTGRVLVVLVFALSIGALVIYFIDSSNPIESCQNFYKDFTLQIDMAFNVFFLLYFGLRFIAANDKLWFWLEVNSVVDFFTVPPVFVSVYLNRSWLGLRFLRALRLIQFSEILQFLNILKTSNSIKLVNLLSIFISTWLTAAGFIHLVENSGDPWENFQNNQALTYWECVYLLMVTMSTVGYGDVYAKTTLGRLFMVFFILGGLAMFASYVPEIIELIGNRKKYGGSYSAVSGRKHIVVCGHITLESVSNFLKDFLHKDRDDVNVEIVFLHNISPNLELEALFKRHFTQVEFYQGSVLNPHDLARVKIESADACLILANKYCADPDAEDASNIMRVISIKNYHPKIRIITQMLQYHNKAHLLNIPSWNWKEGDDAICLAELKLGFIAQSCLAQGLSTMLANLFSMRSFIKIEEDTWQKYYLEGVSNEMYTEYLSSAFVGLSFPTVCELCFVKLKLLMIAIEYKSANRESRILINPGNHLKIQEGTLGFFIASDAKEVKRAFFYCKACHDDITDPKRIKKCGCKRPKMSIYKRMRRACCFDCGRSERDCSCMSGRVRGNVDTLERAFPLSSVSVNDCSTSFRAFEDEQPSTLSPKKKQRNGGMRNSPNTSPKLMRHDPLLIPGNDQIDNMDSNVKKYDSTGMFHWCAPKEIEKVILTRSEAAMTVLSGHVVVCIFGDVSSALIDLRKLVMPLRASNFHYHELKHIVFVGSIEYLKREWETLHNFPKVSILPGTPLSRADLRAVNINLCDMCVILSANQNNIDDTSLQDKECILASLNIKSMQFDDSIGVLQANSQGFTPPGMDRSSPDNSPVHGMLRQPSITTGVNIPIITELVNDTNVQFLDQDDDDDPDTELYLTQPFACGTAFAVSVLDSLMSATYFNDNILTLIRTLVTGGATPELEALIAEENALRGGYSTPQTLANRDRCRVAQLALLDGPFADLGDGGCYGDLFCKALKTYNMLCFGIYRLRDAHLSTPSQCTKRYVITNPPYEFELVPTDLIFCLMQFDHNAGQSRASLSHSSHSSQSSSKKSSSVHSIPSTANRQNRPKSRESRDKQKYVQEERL

O=C(Nc1cccc(C(F)(F)F)c1)c1sc(=S)n2c1[nH]c(=O)c1cc(Br)ccc12 [Compound 208, 7-bromo-5-oxo-1-thioxo-N-(3-(trifluoromethyl)phenyl)-4,5-dihydro-1H-thiazolo[3,4-a]quinazoline-3-carboxamide]
EC50 ([1]; fit of dose-response curve of initial rates, read-out: Apparent EC50 based on vi): 2890 nM | reduction of urination frequency ([2]; 50 mg/kg oral): 33%

O=C(O)c1ccc(Cl)c2c1[nH]c1c3ccc(C(F)(F)F)cc3oc12 [LDD175, reference compound]
activation effect on the BKCa channels at a single concentration ([1]; 3 μM): significant activation effects | Activity (ΔRFU normalized by activities of LDD175) [3]: 1.00

O=C(O[C@H]1CN2CCC1CC2)N1CCc2ccccc2[C@@H]1c1ccccc1 [solifenacin succinate, reference compound]
number of urinations ([2]; 5 mg/kg oral, 3 hours, SHR vehicle 8.2): 4.2

— patent US20240398813A1, “PHARMACEUTICAL COMPOSITION FOR PREVENTING OR TREATING OVERACTIVE BLADDER” (GWANGJU INSTITUTE OF SCIENCE AND TECHNOLOGY, priority 2021, published 2024)
